Laboratory results as given in US20190231666A1, “ANTI-DANDRUFF COMPOSITION” (Conopco, Inc., d/b/a UNILEVER, priority 2016, published 2019).

Columns and labels:
[1] = test system: normal human epidermal keratinocytes (HEKa cells); assay: IL-8 release from keratinocytes stimulated with IL-17, IL-22 and TNFα; assay type: cell-based; conditions: 16 hrs
Protocol: To test the foregoing hypothesis, the inventors devised an in vitro model for the inflammatory conditions prevalent in the skin of subjects with dandruff. The model involves in vitro tissue culture of normal human epidermal keratinocytes (HEKa cells). The cells were exposed to a combination of IL-17, TNFα and IL-22 to stimulate an inflammatory-type response, which response was measured by production of IL-8 by the keratinocytes and also by analysis of their general gene expression profile. Adult proliferating human epidermal karatinocytes (HEKa) (from Thermo Fisher Scientific) used at low passage (p3 or lower). Cells were cultured in keratinocyte maintenance medium KGM Gold (Lonza Group) containing all components of the bullet kit plus 70 μM calcium. For the assay, cells were plated in KGM Gold with all components of the bullet kit except hydrocortisone and gentamycin, supplemented with 70 μM calcium. […] After 16 hrs the cell culture medium was removed and the amount of IL-8 cytokine released from the keratinocyte cells was quantified using a DuoSet IL-8 ELISA kit (R&D Systems Ltd). The keratinocyte cells were lysed in RIPA buffer and the total amount of protein in each sample quantified using a Pierce BCA protein assay kit (Thermofisher Ltd). […] All treatments were run in triplicate and a mean and standard deviation value calculated, the results being illustrated in FIG. 3.

[2] = 25° C.; cited from earlier work
MCF7 cells = conditions: 13 μM myricetin vs DMSO vehicle control, FIGS. 2A and 2B; cited from earlier work

In the case of O=c1c(O)c(-c2cc(O)c(O)c(O)c2)oc2cc(O)cc(O)c12 [Myricetin, myricetin], the “inflammatory response to the cytokines (IL-8 release)” value ([1]; 6.5 μg/ml myricetin, IL-17 200 ng/ml, IL-22 200 ng/ml, TNFa 10 ng/ml, p=0.0001) is given as “marked inhibition”, the “production of IL-8 (inflammatory response)” value ([1]; HEKa cells, IL-17, TNFα and IL-22 stimulation, FIG. 3) is given as “significant reduction” and the solubility in water [2] is given as “about 55 mg/L”. For the same compound, the “effect on gene expression changes observed in dandruff scalp skin relative to healthy scalp skin” value (MCF7 cells) was “reverse some of the gene expression changes”.
